Measurements published in patent publication US20080275084A1, “Piperidines for the Treatment of Chemokine Mediated Diseases” (ASTRAZENECA AB, priority 2005, published 2008).
Counter-ions that a name gives are not always drawn.

Tests used:
human H1 receptor = biological target: T1, human H1 receptor (Homo sapiens, UniProt P35367); assay: Histamine H1 receptor binding, competition displacement of [3H]-pyrilamine; conditions: displacement of 1 nM [3H]-pyrilamine, membranes of recombinant CHO-K1 cells expressing human H1 receptor, 1 hour at room temperature; for Ki: read-out: H1 pKi (converted)
T1 construct: purchased Euroscreen SA, Brussels, Belgium ES-390-M; host or cells: CHO-K1
T1 sequence (P35367 whole entry): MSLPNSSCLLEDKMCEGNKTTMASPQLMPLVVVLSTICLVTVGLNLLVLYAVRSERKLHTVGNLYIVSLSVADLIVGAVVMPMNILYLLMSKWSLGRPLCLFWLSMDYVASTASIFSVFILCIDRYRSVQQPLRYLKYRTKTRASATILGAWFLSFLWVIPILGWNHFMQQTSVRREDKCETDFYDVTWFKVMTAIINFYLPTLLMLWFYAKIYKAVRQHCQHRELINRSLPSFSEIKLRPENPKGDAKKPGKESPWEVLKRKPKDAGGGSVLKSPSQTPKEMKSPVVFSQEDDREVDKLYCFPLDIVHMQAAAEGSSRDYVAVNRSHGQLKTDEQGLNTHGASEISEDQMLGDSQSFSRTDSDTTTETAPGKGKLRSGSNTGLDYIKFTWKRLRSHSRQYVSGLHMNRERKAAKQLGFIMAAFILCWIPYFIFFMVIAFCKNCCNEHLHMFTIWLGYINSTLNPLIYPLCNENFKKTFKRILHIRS
Procedure: Histamine H1 receptor binding activity of compounds of the invention was assessed by competition displacement of 1 nM [3H]-pyrilamine (Amersham, Bucks, Product code TRK 608, specific activity 30 Ci/mmol) to 2 μg membranes prepared from recombinant CHO-K1 cells expressing the human H1 receptor (Euroscreen SA, Brussels, Belgium, product code ES-390-M) in assay buffer (50 mM Tris pH 7.4 containing 2 mM MgCl2, 250 mM sucrose and 100 mM NaCl) for 1 hour at room temperature.
The following compounds of the invention gave inhibition of [3H]pyrilamine binding: […]

recombinant human CCR3 = biological target: T2, recombinant human CCR3 (Homo sapiens, UniProt P51677); assay: Compound affinity at human recombinant CCR3 receptors, radioligand competition on CHO-K1 cell membranes; type: binding; conditions: competition with 2 nM [3H]-4-(2,4-dichloro-3-methylphenoxy)-1'-[4-(methylsulfonyl)benzoyl]-1,4'-bipiperidine, 2 h at 37° C., mean pKi by Cheng-Prussof correction of pIC50, minimum 2 experiments
T2 construct: expressed in transfected cells; host or cells: CHO-K1
T2 sequence (P51677 1-355): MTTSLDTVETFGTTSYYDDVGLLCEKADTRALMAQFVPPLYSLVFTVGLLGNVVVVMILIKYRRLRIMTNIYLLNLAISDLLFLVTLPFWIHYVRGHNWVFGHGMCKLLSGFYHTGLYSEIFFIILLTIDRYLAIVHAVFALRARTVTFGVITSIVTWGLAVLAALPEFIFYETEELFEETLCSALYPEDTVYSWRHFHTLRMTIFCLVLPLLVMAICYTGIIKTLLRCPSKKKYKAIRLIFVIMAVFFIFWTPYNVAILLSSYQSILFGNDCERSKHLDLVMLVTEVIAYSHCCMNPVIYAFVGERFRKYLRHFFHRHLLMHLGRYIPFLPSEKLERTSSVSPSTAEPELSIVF
Procedure: Determination of Compound Affinity at Human Recombinant CCR3 Receptors Assessed by Competition of [^3H]-4-(2,4-dichloro-3-methylphenoxy)-1′-[4-(methylsulfonyl)benzoyl]-1,4′-bipiperidine for CHO-K1 Cell Membranes In Vitro
Membranes, prepared from CHO-K1 cells stably expressing recombinant human CCR3, suspended in assay buffer (50 mM Tris-Base, pH 7.4; containing sodium chloride (100 mM) and magnesium chloride (2 mM)) were incubated in the presence of 2 nM [^3H]-4-(2,4-dichloro-3-methylphenoxy)-1′-[4-(methylsulfonyl)benzoyl]-1,4′-bipiperidine, along with vehicle (1% (v/v) DMSO), 4-(4-chloro-3-methylphenoxy)-1′-[2-(methylsulfonyl)benzoyl]-1,4′-bipiperidine (to define non-specific binding) or test compound for 2 h at 37° C. in round bottomed 96-well plates. The plates were then filtered onto GF/B filter plates, pre-soaked for 1 hour in plate-coating solution (0.3% (w/v) polyethylenimine, 0.2% (w/v) BSA in de-ionised water), using a 96-well plate Tomtec cell harvester. Four washes (250 μL) with wash buffer (50 mM Tris-Base, pH 7.4 containing sodium chloride (500 mM) and magnesium chloride (2 mM)) were performed at 4° C. to remove unbound radioactivity. […] The plates were sealed (TopSeal A) and filter-bound radioactivity was measured with a scintillation counter (TopCount, Packard BioScience) using a 1 minute counting protocol. […]

Compound | Ki (human H1 receptor) [nM] | also measured
Cc1c(OC2CCN(CC3CCN(C4(C(=O)O)CCCC4)CC3)CC2)ccc(Cl)c1Cl [Example 8A, 1-(4-{[4-(3,4-dichloro-2-methylphenoxy)piperidin-1-yl]methyl}piperidin-1-yl)cyclopentanecarboxylic acid] | 316 | 
O=C(O)[C@H](CC1CCCC1)N1CCC(CN2CCC(Oc3ccc(Cl)c(Cl)c3)CC2)CC1 [Example 4A, (2S)-3-Cyclopentyl-2-(4-{[4-(3,4-dichlorophenoxy)piperidin-1-yl]methyl}piperidin-1-yl)propanoic acid] | 126 | 
O=C(O)C1(N2CCC(CN3CCC(Oc4ccc(Cl)c(Cl)c4)CC3)CC2)CCCCC1 [Example 6A, 1-(4-{[4-(3,4-dichlorophenoxy)piperidin-1-yl]methyl}piperidin-1-yl)cyclohexanecarboxylic acid] | 501 | 
(2S)-3-cyclohexyl-2-(4-{[4-(3,4-dichloro-2-methylphenoxy)piperidin-1-yl]methyl}piperidin-1-yl)propanoic acid [Example 1A] |  | H1 pKi (human H1 receptor): 7.2
Cc1cc(Cl)ccc1OC1CCN(CC2CCN([C@@](C)(CC(C)C)C(=O)O)CC2)CC1 [Example 16A, (2S)-2-{4-[4-(4-Chloro-2-methyl-phenoxy)-piperidin-1-ylmethyl]-piperidin-1-yl}-2,4-dimethyl-pentanoic acid] |  | Ki (recombinant human CCR3): 0.631 nM
Cc1cc(Cl)ccc1OC1CCN(CC2CCN(C3(C(=O)O)CCCCC3)CC2)CC1 [Example 13A, 1-(4-{[4-(4-Chloro-2-methylphenoxy)piperidin-1-yl]methyl}piperidin-1-yl)cyclohexanecarboxylic acid dihydrochloride] | 631 | 
Cc1c(OC2CCN(CC3CCN([C@@H](CC4CCCCC4)C(=O)O)CC3)CC2)ccc(Cl)c1Cl [Example 2A, (2S)-3-Cyclohexyl-2-(4-{[4-(3,4-dichloro-2-methylphenoxy)piperidin-1-yl]methyl}piperidin-1-yl)propanoic acid] | 79.4 | 
Cc1c(OC2CCN(CC3CCN([C@@H](CC4CC4)C(=O)O)CC3)CC2)ccc(Cl)c1Cl [Example 3A, (2S)-3-Cyclopropyl-2-(4-{[4-(3,4-dichloro-2-methylphenoxy)piperidin-1-yl]methyl}piperidin-1-yl)propanoic acid] | 200 | 
